Results on 3 molecules are retold here after patent US7058616B1, “Method and system for predicting resistance of a disease to a therapeutic agent using a neural network” (Virco Bvba, priority 2000, dated 2006).

Structures are written as SMILES.

In the test the test system is HIV-1. In words: MT-4 cell viral cytopathic effect protection assay, phenotypic susceptibility of patient recombinant virus. In kind it is cell-based. As to the method:
Phenotypic susceptibility was determined using a MT-4 cell viral cytopathic effect protection assay. See, e.g., Kashiwase et al., Chemotherapy 45(1):48–55 (1999), expressly incorporated herein by reference; Larder et al., Antimicrob. Agents Chemother. 43(8):1961–1967 (1999).
(Damage to the host cells serves as the signal in cytopathic effect assays.)

Setting [1] is: Table 13/14 sample 1: 10I,71V,73S,84V,90M, 63P,85V,93L.
The mark [2] stands for this setting: Table 13/14 sample 7: 71V,73S,90M, 20I,63P.

On to `CC(C)(C)NC(=O)[C@@H]1C[C@@H]2CCCC[C@@H]2CN1C[C@@H](O)[C@H](Cc1ccccc1)NC(=O)[C@H](CC(N)=O)NC(=O)c1ccc2ccccc2n1` [Saquinavir], for which the actual phenotype entry was “R (if the value is greater than 10, it is considered to be ‘resistant’)” under setting [1]; “S (A fold resistance of less than or equal to 4 is considered to be ‘sensitive’)” (Table 13/14 sample 9: 10I,46L,54V,71V,82A,90M, 63P,93L); “R (if the value is greater than 10, it is considered to be ‘resistant’)” (Table 13/14 sample 11: 10I,46L,54V,71V,77I,82A,90M, 55R,58E,63P,93L); “I (greater than 4 and less than 10 is considered to be ‘intermediate’)” (Table 13/14 sample 19: 54V,71V,82A, 63P,93L).
For `Cc1c(O)cccc1C(=O)N[C@@H](CSc1ccccc1)[C@H](O)CN1C[C@H]2CCCC[C@H]2C[C@H]1C(=O)NC(C)(C)C` [Nelfinavir], the “actual phenotype resistance level” value is, setting by setting: (PI test sample 2) “R/R (if the value is greater than 10, it is considered to be ‘resistant’)”; (PI test sample 3) “R/R (if the value is greater than 10, it is considered to be ‘resistant’)”; (PI test sample 4) “R/R (if the value is greater than 10, it is considered to be ‘resistant’)”; (PI test sample 5) “R/R (if the value is greater than 10, it is considered to be ‘resistant’)”; (PI test sample 7) “R/R (if the value is greater than 10, it is considered to be ‘resistant’)”; (PI test sample 8) “R/R (if the value is greater than 10, it is considered to be ‘resistant’)”. For the same molecule, the “actual phenotype resistance level” value reads like this: (PI test sample 9) “R/R (if the value is greater than 10, it is considered to be ‘resistant’)”; (PI test sample 10) “R (if the value is greater than 10, it is considered to be ‘resistant’)”; (PI test sample 11) “I/I (greater than 4 and less than 10 is considered to be ‘intermediate’)”; (PI test sample 13) “R/R (if the value is greater than 10, it is considered to be ‘resistant’)”; (PI test sample 14) “R/R (if the value is greater than 10, it is considered to be ‘resistant’)”; (PI test sample 15) “R/R (if the value is greater than 10, it is considered to be ‘resistant’)”. Besides, the “actual phenotype resistance level” value is, setting by setting: (PI test sample 16) “R/R (if the value is greater than 10, it is considered to be ‘resistant’)”; (PI test sample 17) “R/R (if the value is greater than 10, it is considered to be ‘resistant’)”; (PI test sample 18) “R/R (if the value is greater than 10, it is considered to be ‘resistant’)”; (PI test sample 19) “R (if the value is greater than 10, it is considered to be ‘resistant’)”; (PI test sample 19, listed as NFV) “R/R (if the value is greater than 10, it is considered to be ‘resistant’)”; (PI test sample 20) “R/R (if the value is greater than 10, it is considered to be ‘resistant’)”. Moreover, the “actual phenotype resistance level” value is, setting by setting: (PI test sample 21) “R/R (if the value is greater than 10, it is considered to be ‘resistant’)”; (PI test sample 22) “R (if the value is greater than 10, it is considered to be ‘resistant’)”; (PI test sample 23) “R/R (if the value is greater than 10, it is considered to be ‘resistant’)”; (PI test sample 24) “R/R (if the value is greater than 10, it is considered to be ‘resistant’)”; (PI test sample 25) “R/R (if the value is greater than 10, it is considered to be ‘resistant’)”; (PI test sample 26) “R/R (if the value is greater than 10, it is considered to be ‘resistant’)”. For the same molecule, the “actual phenotype resistance level” value was “R/R (if the value is greater than 10, it is considered to be ‘resistant’)” (PI test sample 32); “R/R (if the value is greater than 10, it is considered to be ‘resistant’)” (PI test sample 33); “R/R (if the value is greater than 10, it is considered to be ‘resistant’)” (PI test sample 34); “R/R (if the value is greater than 10, it is considered to be ‘resistant’)” (PI test sample 35); “R/R (if the value is greater than 10, it is considered to be ‘resistant’)” (PI test sample 36); “R/R (if the value is greater than 10, it is considered to be ‘resistant’)” (PI test sample 37). Moreover, the “actual phenotype resistance level” value runs as follows: (PI test sample 38) “R/R (if the value is greater than 10, it is considered to be ‘resistant’)”; (PI test sample 39) “R/R (if the value is greater than 10, it is considered to be ‘resistant’)”; (PI test sample 40) “R/R (if the value is greater than 10, it is considered to be ‘resistant’)”; (PI test sample 41) “R/R (if the value is greater than 10, it is considered to be ‘resistant’)”; (PI test sample 42) “I/I (greater than 4 and less than 10 is considered to be ‘intermediate’)”; (PI test sample 44) “R/R (if the value is greater than 10, it is considered to be ‘resistant’)”. For the same molecule, the “actual phenotype resistance level” value reads like this: (PI test sample 45) “R/R (if the value is greater than 10, it is considered to be ‘resistant’)”; (Table 3 testing sample 1) “S/S (A fold resistance of less than or equal to 4 is considered to be “sensitive,”)”; (Table 3 testing sample 4) “R/R (if the value is greater than 10, it is considered to be “resistant.”)”; (Table 3 testing sample 5) “R/R (if the value is greater than 10, it is considered to be “resistant.”)”; (Table 3 testing sample 6) “R/R (if the value is greater than 10, it is considered to be “resistant.”)”; (Table 3 testing sample 7) “S/S (A fold resistance of less than or equal to 4 is considered to be “sensitive,”)”. The “actual phenotype resistance level” value is “R/R (if the value is greater than 10, it is considered to be “resistant.”)” (Table 3 testing sample 8) and “R/R (if the value is greater than 10, it is considered to be “resistant.”)” (Table 3 testing sample 10). In addition, the actual phenotype entry is, setting by setting: under setting [1], “R (if the value is greater than 10, it is considered to be ‘resistant’)”; (Table 13/14 sample 3: 10I, 36V,93L) “R (if the value is greater than 10, it is considered to be ‘resistant’)”; (Table 13/14 sample 5: 10V,30N, 13V,63P) “R (if the value is greater than 10, it is considered to be ‘resistant’)”; under setting [2], “R (if the value is greater than 10, it is considered to be ‘resistant’)”; (Table 13/14 sample 10: 46I,71V,73S,90M, 20I,63P,93L) “R (if the value is greater than 10, it is considered to be ‘resistant’)”; (Table 13/14 sample 18: 36I,71T,90M, 63P,93L) “R (if the value is greater than 10, it is considered to be ‘resistant’)”. In addition, the actual phenotype result (Table 13/14 sample 20: 77I,88S, 13V, 63P, 93L) is listed as “R (if the value is greater than 10, it is considered to be ‘resistant’)”.
For the molecule `CC(C)c1nc(CN(C)C(=O)N[C@H](C(=O)N[C@@H](Cc2ccccc2)C[C@H](O)[C@H](Cc2ccccc2)NC(=O)OCc2cncs2)C(C)C)cs1` [Ritonavir], the actual phenotype entry is, setting by setting: (Table 13/14 sample 2: 10I,46I,48V,77I,82A,90M, 10E,58E,63T) “S (A fold resistance of less than or equal to 4 is considered to be ‘sensitive’)”; (Table 13/14 sample 6: 10I,48V,54V,82A, 13V) “R (if the value is greater than 10, it is considered to be ‘resistant’)”; under setting [2], “I (greater than 4 and less than 10 is considered to be ‘intermediate’)”; (Table 13/14 sample 14: 10I,46I,71T,77I,90M, 57K,63P,93L) “S (A fold resistance of less than or equal to 4 is considered to be ‘sensitive’)”; (Table 13/14 sample 17: 46I,77I,90M, 10F,20L,63P) “I (greater than 4 and less than 10 is considered to be ‘intermediate’)”.
